System: C57 Mice
Experiment: Estimating hemoglobin levels in mice
Format: in vivo
Details: oral once daily for 7 consecutive days at 20 mg/kg, whole blood on 8th day
Experimental: (2) Protocol for Estimating Hemoglobin Levels in Mice
C57 mice were administered compounds of the present invention at 10 ml/kg by oral route daily once in the morning for 7 consecutive days at 20 mg/kg. On 8th day animals were bled by retro-orbital puncture under light ether anesthesia in microfuge tubes containing 2% EDTA (10 μl/100 μl of blood) for whole blood. Hemoglobin, Reticulocyte count and RBC count were measured using standard procedures.

SMILES	Hemoglobin (g/dL) 20 mg/kg compound
CCCC(CCC)On1c(=O)c(C(=O)NCC(=O)O)c(O)c2ccccc21 [Example 77, 2-(1-(heptan-4-yloxy)-4-hydroxy-2-oxo-1,2-dihydroquinoline-3-carboxamido)acetic acid]	15.5 g/dL
O=C(N[C@@H](Cc1ccccc1)C(=O)O)c1c(O)c2ccccc2n(OCC2CC2)c1=O [Example 58, (S)-2-(1-(cyclopropylmethoxy)-4-hydroxy-2-oxo-1,2-dihydroquinoline-3-carboxamido)-3-phenylpropanoic acid]	14 g/dL
O=C(N[C@H](C(=O)O)c1ccccc1)c1c(O)c2ccccc2n(OCC2CC2)c1=O [Example 47, (S)-2-(1-(cyclopropylmethoxy)-4-hydroxy-2-oxo-1,2-dihydroquinoline-3-carboxamido)-2-phenylacetic acid]	14.2 g/dL
C=CCOn1c(=O)c(C(=O)NCC(=O)O)c(O)c2cc(Oc3ccccc3)ccc21 [Example 8, 2-(1-(allyloxy)-4-hydroxy-2-oxo-6-phenoxy-1,2-dihydroquinoline-3-carboxamido)acetic acid]	15.8 g/dL
O=C(O)CNC(=O)c1c(O)c2ccccc2n(OCC/C=C/C2CC2)c1=O [Example 76, 2-(1-((4-cyclopropylbut-3-en-1-yl)oxy)-4-hydroxy-2-oxo-1,2-dihydroquinoline-3-carboxamido)acetic acid]	17.1 g/dL
CC(C)COn1c(=O)c(C(=O)NCC(=O)O)c(O)c2ccccc21 [Example 28, 2-(4-hydroxy-1-isobutoxy-2-oxo-1,2-dihydroquinoline-3-carboxamido)acetic acid]	16.9 g/dL
O=C(O)CNC(=O)c1c(O)c2sccc2n(OCC2CC2)c1=O [Example 79, 2-(4-(cyclopropylmethoxy)-7-hydroxy-5-oxo-4,5-dihydrothieno[3,2-b]pyridine-6-carboxamido)acetic acid]	14.3 g/dL
CCCOn1c(=O)c(C(=O)NCC(=O)O)c(O)c2scc(C)c21 [Example 40, 2-(7-hydroxy-3-methyl-5-oxo-4-propoxy-4,5-dihydrothieno[3,2-b]pyridine-6-carboxamido)acetic acid]	16.1 g/dL
CC(C)[C@H](NC(=O)c1c(O)c2ccccc2n(OCC2CC2)c1=O)C(=O)O [Example 55, (S)-2-(1-(cyclopropylmethoxy)-4-hydroxy-2-oxo-1,2-dihydroquinoline-3-carboxamido)-3-methylbutanoic acid]	13 g/dL
C=CCOn1c(=O)c(C(=O)NCC(=O)O)c(O)c2sccc21 [Example 10, 2-(4-(allyloxy)-7-hydroxy-5-oxo-4,5-dihydrothieno[3,2-b]pyridine-6-carboxamido)acetic acid]	13.8 g/dL
CC(C)(C)OC(=O)CNC(=O)c1c(O)c2ccccc2n(OCC2CC2)c1=O [Example 49, tert-butyl-2-(1-(cyclopropylmethoxy)-4-hydroxy-2-oxo-1,2-dihydroquinoline-3-carboxamido)acetate]	14.1 g/dL
Cc1csc2c(O)c(C(=O)NCC(=O)O)c(=O)n(OCc3c(F)cccc3F)c12 [Example 42, 2-(4-((2,6-difluorobenzyl)oxy)-7-hydroxy-3-methyl-5-oxo-4,5-dihydrothieno[3,2-b]pyridine-6-carboxamido)acetic acid]	16.1 g/dL
CCCOn1c(=O)c(C(=O)N[C@@H](C)C(=O)O)c(O)c2ccccc21 [Example 73, (S)-2-(4-hydroxy-2-oxo-1-propoxy-1,2-dihydroquinoline-3-carboxamido)propanoic acid]	16.2 g/dL
CC(C)On1c(=O)c(C(=O)NCC(=O)O)c(O)c2ccccc21 [Example 25, 2-(4-hydroxy-1-isopropoxy-2-oxo-1,2-dihydroquinoline-3-carboxamido)acetic acid]	14.9 g/dL
CCC(CC)On1c(=O)c(C(=O)NCC(=O)O)c(O)c2ccccc21 [Example 38, 2-(4-hydroxy-2-oxo-1-(pentan-3-yloxy)-1,2-dihydroquinoline-3-carboxamido)acetic acid]	15.8 g/dL
C=CCOn1c(=O)c(C(=O)NCC(=O)O)c(O)c2ccc(N3CCOCC3)cc21 [Example 48, 2-(1-(allyloxy)-4-hydroxy-7-morpholino-2-oxo-1,2-dihydroquinoline-3-carboxamido)acetic acid]	13.9 g/dL
COC(=O)CNC(=O)c1c(O)c2ccccc2n(OCC2CC2)c1=O [Example 53, methyl-2-(1-(cyclopropylmethoxy)-4-hydroxy-2-oxo-1,2-dihydroquinoline-3-carboxamido)acetate]	15.2 g/dL
C[C@H](NC(=O)c1c(O)c2ccccc2n(OCC2CC2)c1=O)C(=O)O [Example 45, (S)-2-(1-(cyclopropylmethoxy)-4-hydroxy-2-oxo-1,2-dihydroquinoline-3-carboxamido)propanoic acid]	15.7 g/dL
O=C(O)CNC(=O)c1c(O)c2cncnc2n(OCc2c(F)cccc2F)c1=O [Example 46, 2-(8-((2,6-difluorobenzyl)oxy)-5-hydroxy-7-oxo-7,8-dihydropyrido[2,3-d]pyrimidine-6-carboxamido)acetic acid]	14.2 g/dL
O=C(O)CNC(=O)c1c(O)c2ccncc2n(OCC2CC2)c1=O [Example 70, 2-(1-(cyclopropylmethoxy)-4-hydroxy-2-oxo-1,2-dihydro-1,7-naphthyridine-3-carboxamido)acetic acid]	13.9 g/dL
CC(C)C[C@H](NC(=O)c1c(O)c2ccccc2n(OCC2CC2)c1=O)C(=O)O [Example 54, (S)-2-(1-(cyclopropylmethoxy)-4-hydroxy-2-oxo-1,2-dihydroquinoline-3-carboxamido)-4-methylpentanoic acid]	13.7 g/dL
O=C(O)CNC(=O)c1c(O)c2ccccc2n(OCC(F)(F)F)c1=O [Example 69, 2-(4-hydroxy-2-oxo-1-(2,2,2-trifluoroethoxy)-1,2-dihydroquinoline-3-carboxamido)acetic acid]	15.7 g/dL
O=C(O)CNC(=O)c1c(O)c2ccccc2n(OCC2CCCCC2)c1=O [Example 44, 2-(1-(cyclohexylmethoxy)-4-hydroxy-2-oxo-1,2-dihydroquinoline-3-carboxamido)acetic acid]	16.1 g/dL
O=C(O)CNC(=O)c1c(O)c2nccnc2n(OCc2c(F)cccc2F)c1=O [Example 36, 2-(5-((2,6-difluorobenzyl)oxy)-8-hydroxy-6-oxo-5,6-dihydropyrido[2,3-b]pyrazine-7-carboxamido)acetic acid]	14.2 g/dL
O=C(O)CCNC(=O)c1c(O)c2ccccc2n(OCC2CC2)c1=O [Example 56, 3-(1-(cyclopropylmethoxy)-4-hydroxy-2-oxo-1,2-dihydroquinoline-3-carboxamido)propanoic acid]	14.4 g/dL

Source: patent US9394300B2, “Quinolone derivatives” (Cadila Healthcare Limited, priority 2012, dated 2016)
